From patent US20250282728A1, “NITROGEN COMPRISING HETEROCYCLIC DERIVATIVES FOR THE TREATMENT OF DISORDERS ASSOCIATED WITH GPR55 RECEPTOR” (Cerevance, Inc., priority 2022, published 2025)

Legend:
human GPR55 = target: T1, human GPR55 (Homo sapiens, UniProt Q9Y2T6); experiment: Ca2+ mobilization assay (FLIPR, Calcium5 dye), human GPR55; format: cell-based; conditions: HEK293 cells co-expressing PK-tagged human GPR55 and EA-tagged beta-arrestin; intracellular calcium increase
T1 construct: expressed in transfected cells; host or cells: HEK293 (human embryonic kidney) cells
Procedure: (§1) This cell-based assay measures the ability of compounds to activate the GPR55 receptor by measuring changes in intracellular calcium levels. HEK293 (human embryonic kidney) cells co-expressing recombinant ProLink (PK) tagged human or rat GPR55 and Enzyme Acceptor (EA) tagged beta-arrestin were seeded into PDL-coated, black-walled clear-bottom 384 well plates in assay buffer (25 mM HEPES, HBSS, 1 mM Probenicid, 0.1% BSA, pH 7.4) containing Calcium5 dye (Molecular Devices). Cells were incubated in suspension with the Calcium5 dye for 1 hour at 37° C., 5% CO2. Dilution series of the compounds in assay buffer were added to the cells in duplicate wells and compound-mediated real-time increases in intracellular calcium concentration were recorded as increased fluorescence using the Molecular Devices FLIPR instrument. Kinetic traces were reduced to a numerical value by subtracting the minimum response from the maximum response.

rat GPR55 = target: T2, rat GPR55 (Rattus norvegicus, UniProt F1MAK4); experiment: Ca2+ mobilization assay (FLIPR, Calcium5 dye), rat GPR55; format: cell-based; conditions: HEK293 cells co-expressing PK-tagged rat GPR55 and EA-tagged beta-arrestin; intracellular calcium increase
T2 construct: expressed in transfected cells; host or cells: HEK293 (human embryonic kidney) cells
T2 sequence (F1MAK4 1-319): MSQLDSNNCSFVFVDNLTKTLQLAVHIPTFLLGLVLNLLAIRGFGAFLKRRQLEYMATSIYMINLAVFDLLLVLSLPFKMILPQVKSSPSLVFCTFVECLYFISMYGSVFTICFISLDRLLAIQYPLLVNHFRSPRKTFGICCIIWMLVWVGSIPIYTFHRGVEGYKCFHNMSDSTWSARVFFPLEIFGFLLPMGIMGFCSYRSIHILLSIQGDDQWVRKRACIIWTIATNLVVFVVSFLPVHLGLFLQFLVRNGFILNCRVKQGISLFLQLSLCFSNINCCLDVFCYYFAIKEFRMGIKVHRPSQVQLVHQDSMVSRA
Procedure: as §1

T1 sequence (Q9Y2T6 whole entry): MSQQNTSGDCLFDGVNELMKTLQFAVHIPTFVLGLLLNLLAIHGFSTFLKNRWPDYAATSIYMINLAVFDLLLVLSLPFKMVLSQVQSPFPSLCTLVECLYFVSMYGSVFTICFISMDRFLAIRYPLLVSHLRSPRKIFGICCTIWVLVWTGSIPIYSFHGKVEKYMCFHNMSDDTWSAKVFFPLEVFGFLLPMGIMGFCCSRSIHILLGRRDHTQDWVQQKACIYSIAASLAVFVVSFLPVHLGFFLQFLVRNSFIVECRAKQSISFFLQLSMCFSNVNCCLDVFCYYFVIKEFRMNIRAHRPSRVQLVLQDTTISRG

Compound | EC50 (human GPR55) [nM] | EC50 (rat GPR55) [nM]
CCc1cncc(-c2cnc(N[C@H](C)c3ccc(F)cc3)cn2)c1 [Example 17, (R)-5-(5-ethylpyridin-3-yl)-N-(1-(4-fluorophenyl)ethyl)pyrazin-2-amine] | ≤ 50 | ≤ 1000
C[C@@H](Nc1cnc(-c2cncc(S(C)(=O)=O)c2)cn1)c1ccc(F)cc1 [Example 18, (R)-N-(1-(4-fluorophenyl)ethyl)-5-(5-(methylsulfonyl)pyridin-3-yl)pyrazin-2-amine] | ≤ 50 | ≤ 50
CCc1cncc(-c2ccc(N[C@H](C)c3ccccc3F)nc2)c1 [Example 19, (R)-5′-ethyl-N-(1-(2-fluorophenyl)ethyl)-[3,3′-bipyridin]-6-amine] | ≤ 1000 | ≤ 1000
C=Cc1cncc(-c2ccc(N[C@H](C)c3ccc(F)cc3)nc2)c1 [Example 20, (R)-N-(1-(4-fluorophenyl)ethyl)-5′-vinyl-[3,3′-bipyridin]-6-amine] | ≤ 50 | ≤ 50
CCc1cncc(-c2ccc(N[C@@H]3CCc4ccccc43)nc2)c1 [Example 21, (R)-N-(2,3-dihydro-1H-inden-1-yl)-5′-ethyl-[3,3′-bipyridin]-6-amine] | ≤ 200 | ≤ 5000
Cc1nc(N[C@H](C)c2ccc(F)cc2)ccc1-c1cncc(S(C)(=O)=O)c1 [Example 22, (R)-N-(1-(4-fluorophenyl)ethyl)-2-methyl-5′-(methylsulfonyl)-[3,3′-bipyridin]-6-amine] | ≤ 200 | ≤ 5000
C[C@@H](Nc1cnc(-c2cncc([S+](C)[O-])c2)cn1)c1ccc(F)cc1 (stereo partly drawn) [Example 23, N-((R)-1-(4-fluorophenyl)ethyl)-5-(5-(methylsulfinyl)pyridin-3-yl)pyrazin-2-amine] | ≤ 1000 | ≤ 5000
CC[S+]([O-])c1cncc(-c2cnc(N[C@H](C)c3ccc(F)cc3)cn2)c1 (stereo partly drawn) [Example 24, 5-(5-(ethylsulfinyl)pyridin-3-yl)-N-((R)-1-(4-fluorophenyl)ethyl)pyrazin-2-amine] | ≤ 200 | ≤ 5000
C[C@@H](Nc1cnc(-c2cnc3oc(=O)n(C)c3c2)cn1)c1ccc(F)cc1 [Example 26, (R)-6-(5-((1-(4-fluorophenyl)ethyl)amino)pyrazin-2-yl)-1-methyloxazolo[5,4-b]pyridin-2(1H)-one] | ≤ 1000 | ≤ 5000
C[C@@H](Nc1ncc(-c2cncc(S(C)(=O)=O)c2)nn1)c1ccc(F)cc1 [Example 28, (R)-N-(1-(4-fluorophenyl)ethyl)-6-(5-(methylsulfonyl)pyridin-3-yl)-1,2,4-triazin-3-amine] | ≤ 50 | ≤ 1000
C=Cc1cncc(-c2cnc(N[C@H](C)c3ccc(F)cc3)cn2)c1 [Example 33, (R)-N-(1-(4-fluorophenyl)ethyl)-5-(5-vinylpyridin-3-yl)pyrazin-2-amine] | ≤ 50 | ≤ 1000
C[C@@H](Nc1cnc(-c2cncc(C=C(F)F)c2)cn1)c1ccc(F)cc1 [Example 34, (R)-5-(5-(2,2-difluorovinyl)pyridin-3-yl)-N-(1-(4-fluorophenyl)ethyl)pyrazin-2-amine] | ≤ 50 | ≤ 1000
C[C@@H](Nc1cnc(-c2cncc(CCO)c2)cn1)c1ccc(F)cc1 [Example 35, (R)-2-(5-(5-((1-(4-fluorophenyl)ethyl)amino)pyrazin-2-yl)pyridin-3-yl)ethan-1-ol] | ≤ 50 | ≤ 5000
CS(=O)(=O)c1cncc(-c2cnc(N[C@@H]3CCc4ccccc43)cn2)c1 [Example 36, (R)-N-(2,3-dihydro-1H-inden-1-yl)-5-(5-(methylsulfonyl)pyridin-3-yl)pyrazin-2-amine] | ≤ 200 | ≤ 5000
CNCc1cncc(-c2cnc(N[C@H](C)c3ccc(F)cc3)cn2)c1 [Example 37, (R)-N-(1-(4-fluorophenyl)ethyl)-5-(5-(methylamino)methylpyridin-3-yl)pyrazin-2-amine] | ≤ 200 | ≤ 50
CS(=O)(=O)c1cncc(-c2ccc(NC3CCc4cc(F)ccc43)nc2)c1 (centres unmarked) [Example 38, N-(5-fluoro-2,3-dihydro-1H-inden-1-yl)-5′-(methylsulfonyl)-[3,3′-bipyridin]-6-amine] | ≤ 1000 | ≤ 50
C[C@@H](Nc1cnc(-c2cncc(OC(F)F)c2)cn1)c1ccc(F)cc1 [Example 39, (R)-5-(5-(difluoromethoxy)pyridin-3-yl)-N-(1-(4-fluorophenyl)ethyl)pyrazin-2-amine] | ≤ 1000 | ≤ 1000
C[C@@H](Nc1ncc(-c2cncc(C=C(F)F)c2)nn1)c1ccc(F)cc1 [Example 40, (R)-6-(5-(2,2-difluorovinyl)pyridin-3-yl)-N-(1-(4-fluorophenyl)ethyl)-1,2,4-triazin-3-amine] | ≤ 200 | ≤ 5000
C[C@@H](Nc1ncc(-c2cncc(CO)c2)nn1)c1ccc(F)cc1 [Example 41, (R)-(5-(3-((1-(4-fluorophenyl)ethyl)amino)-1,2,4-triazin-6-yl)pyridin-3-yl)methanol] | ≤ 200 | ≤ 1000
C[C@@H](Nc1cnc(-c2cncc(OCC(F)(F)F)c2)cn1)c1ccc(F)cc1 [Example 42, (R)-N-(1-(4-fluorophenyl)ethyl)-5-(5-(2,2,2-trifluoroethoxy)pyridin-3-yl)pyrazin-2-amine] | ≤ 200 | ≤ 1000
C[C@@H](Nc1cnc(-c2cncc(OC(F)(F)F)c2)cn1)c1ccc(F)cc1 [Example 43, (R)-N-(1-(4-fluorophenyl)ethyl)-5-(5-(trifluoromethoxy)pyridin-3-yl)pyrazin-2-amine] | ≤ 50 | ≤ 5000
C=Cc1cc(-c2cnc(N[C@H](C)c3ccc(F)cc3)cn2)cnn1 [Example 44, (R)-N-(1-(4-fluorophenyl)ethyl)-5-(6-vinylpyridazin-4-yl)pyrazin-2-amine] | ≤ 1000 | ≤ 5000
OC(c1cncc(-c2cnc(N[C@@H]3CCc4ccccc43)cn2)c1)C(F)F (stereo partly drawn) [Example 45, 1-(5-(5-(((R)-2,3-dihydro-1H-inden-1-yl)amino)pyrazin-2-yl)pyridin-3-yl)-2,2-difluoroethan-1-ol] | ≤ 200 | ≤ 1000
CCc1cncc(-c2ccc(N[C@H](C)c3ccc(OC)cc3)nc2)c1 [Example 47, (R)-5′-ethyl-N-(1-(4-methoxyphenyl)ethyl)-[3,3′-bipyridin]-6-amine] | ≤ 1000 | ≤ 5000
CCc1cncc(-c2ccc(N[C@H](C)c3cccc(F)c3)nc2)c1 [Example 48, (R)-5′-ethyl-N-(1-(3-fluorophenyl)ethyl)-[3,3′-bipyridin]-6-amine] | ≤ 50 | ≤ 1000
CCc1cncc(-c2ccc(N[C@H](C)c3ccccc3)nc2)c1 [Example 49, (R)-5′-ethyl-N-(1-phenylethyl)-[3,3′-bipyridin]-6-amine] | ≤ 50 | ≤ 1000
CCc1cncc(-c2ccc(N[C@H](C)c3ccc(C)cc3)nc2)c1 [Example 50, (R)-5′-ethyl-N-(1-(p-tolyl)ethyl)-[3,3′-bipyridin]-6-amine] | ≤ 1000 | ≤ 5000
C#Cc1cncc(-c2ccc(N[C@H](C)c3ccc(F)cc3)nc2)c1 [Example 51, (R)-5′-ethynyl-N-(1-(4-fluorophenyl)ethyl)-[3,3′-bipyridin]-6-amine] | ≤ 50 | ≤ 1000
